Test results reported in ChEMBL document CHEMBL3769356, “Rational design in search for 5-phenylhydantoin selective 5-HT7R antagonists. Molecular modeling, synthesis and biological evaluation” (Eur J Med Chem, 2016).
The source made the active and inactive calls. No cut-off for these calls is given here.

How the values were obtained:
[1] = target: T1, 5-hydroxytryptamine receptor 7 (Homo sapiens, UniProt P34969); test: Agonist activity at human 5-HT7 receptor expressed in HEK293 cells assessed as increase in cAMP level at 10 uM after 15 mins by HTRF assay; type: functional, cell-based
[2] = species: Homo sapiens; test: Selectivity ratio of Ki for human dopamine D2L receptor to Ki for human 5-HT7 receptor
[3] = target: T1, 5-hydroxytryptamine receptor 7; test: Antagonist activity at human 5-HT7 receptor expressed in HEK293 cells assessed as inhibition of 5-CT-induced cAMP production at 10 uM preincubated for 15 mins followed by 5-CT addition measured after 15 mins by HTRF assay; type: functional, cell-based
[4] = target: T1, 5-hydroxytryptamine receptor 7; test: Displacement of [3H]-5-CT from human 5-HT7 receptor expressed in HEK293 cells; type: cell-based
[5] = species: Homo sapiens; test: Selectivity ratio of Ki for human 5-HT1A receptor to Ki for human 5-HT7 receptor
[6] = target: T2, 5-hydroxytryptamine receptor 1A (Homo sapiens, UniProt P08908); test: Displacement of [3H]-8-OH-DPAT from human 5-HT1A receptor expressed in HEK293 cells; type: cell-based
T2 sequence (P08908 whole entry): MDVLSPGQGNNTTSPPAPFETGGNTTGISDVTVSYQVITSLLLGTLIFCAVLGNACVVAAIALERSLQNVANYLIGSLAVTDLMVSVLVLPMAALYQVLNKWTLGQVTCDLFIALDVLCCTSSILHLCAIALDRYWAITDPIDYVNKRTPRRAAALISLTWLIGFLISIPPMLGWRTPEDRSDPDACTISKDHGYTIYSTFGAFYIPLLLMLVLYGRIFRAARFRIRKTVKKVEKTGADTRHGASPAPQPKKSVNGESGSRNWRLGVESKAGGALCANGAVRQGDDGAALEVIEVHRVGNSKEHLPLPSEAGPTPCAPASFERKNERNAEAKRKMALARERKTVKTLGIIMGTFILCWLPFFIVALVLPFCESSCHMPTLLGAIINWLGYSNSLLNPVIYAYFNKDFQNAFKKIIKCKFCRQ

[7] = target: D(2) dopamine receptor (Homo sapiens, UniProt P14416); test: Displacement of [3H]-Raclopride from human dopamine D2L receptor expressed in HEK293 cells; type: cell-based
[8] = target: CYP3A4 (Homo sapiens, UniProt P08684); test: Inhibition of recombinant human CYP3A4 assessed as remaining activity at 25 uM by luminescence -based microplate reader assay; type: ADME; details: read-out: Activity
[9] = target: T1, 5-hydroxytryptamine receptor 7; type: functional, cell-based, HEK293
[10] = system: Liver microsome; test: Drug level in recombinant human liver microsomes treated with 5-(4-fluorophenyl)-3-(2-hydroxy-3-(4-(2-methoxyphenyl)piperazin-1-yl)propyl)-5-methylimidazolidine-2,4-dione at 50 uM after 120 mins by UPLC-MS/MS analysis; type: ADME; details: 2 h
[11] = system: Liver microsome; test: Retention time of the compound in recombinant human liver microsomes treated with 5-(4-fluorophenyl)-3-(2-hydroxy-3-(4-(2-methoxyphenyl)piperazin-1-yl)propyl)-5-methylimidazolidine-2,4-dione at 50 uM after 120 mins by UPLC-MS/MS analysis; type: ADME; details: 2 h

Chain of D(2) dopamine receptor (P14416 whole entry): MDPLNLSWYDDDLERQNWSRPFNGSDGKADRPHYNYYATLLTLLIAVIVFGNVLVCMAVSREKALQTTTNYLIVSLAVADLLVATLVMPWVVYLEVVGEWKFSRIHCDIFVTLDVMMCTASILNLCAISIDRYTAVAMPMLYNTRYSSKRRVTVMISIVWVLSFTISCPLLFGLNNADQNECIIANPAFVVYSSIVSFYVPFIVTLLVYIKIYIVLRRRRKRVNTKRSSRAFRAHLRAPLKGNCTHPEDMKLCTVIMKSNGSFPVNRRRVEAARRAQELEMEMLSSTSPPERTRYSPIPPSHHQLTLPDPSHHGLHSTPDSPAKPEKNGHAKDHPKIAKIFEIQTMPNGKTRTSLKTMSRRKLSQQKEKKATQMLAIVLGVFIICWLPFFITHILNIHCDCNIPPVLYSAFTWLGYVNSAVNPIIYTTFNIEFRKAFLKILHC
T1 sequence (P34969 whole entry): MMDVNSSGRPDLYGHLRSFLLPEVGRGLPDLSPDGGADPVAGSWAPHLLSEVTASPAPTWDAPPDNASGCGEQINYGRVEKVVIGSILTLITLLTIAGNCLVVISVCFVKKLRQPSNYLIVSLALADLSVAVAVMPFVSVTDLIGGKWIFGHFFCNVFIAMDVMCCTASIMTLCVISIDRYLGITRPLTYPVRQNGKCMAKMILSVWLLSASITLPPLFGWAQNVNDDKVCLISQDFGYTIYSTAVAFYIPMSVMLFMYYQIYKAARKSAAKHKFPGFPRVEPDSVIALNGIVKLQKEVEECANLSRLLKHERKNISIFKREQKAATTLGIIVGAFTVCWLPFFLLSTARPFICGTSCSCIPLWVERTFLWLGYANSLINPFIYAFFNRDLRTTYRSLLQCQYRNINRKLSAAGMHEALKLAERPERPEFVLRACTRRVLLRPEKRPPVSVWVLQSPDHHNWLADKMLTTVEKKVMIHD
Chain of CYP3A4 (P08684 whole entry): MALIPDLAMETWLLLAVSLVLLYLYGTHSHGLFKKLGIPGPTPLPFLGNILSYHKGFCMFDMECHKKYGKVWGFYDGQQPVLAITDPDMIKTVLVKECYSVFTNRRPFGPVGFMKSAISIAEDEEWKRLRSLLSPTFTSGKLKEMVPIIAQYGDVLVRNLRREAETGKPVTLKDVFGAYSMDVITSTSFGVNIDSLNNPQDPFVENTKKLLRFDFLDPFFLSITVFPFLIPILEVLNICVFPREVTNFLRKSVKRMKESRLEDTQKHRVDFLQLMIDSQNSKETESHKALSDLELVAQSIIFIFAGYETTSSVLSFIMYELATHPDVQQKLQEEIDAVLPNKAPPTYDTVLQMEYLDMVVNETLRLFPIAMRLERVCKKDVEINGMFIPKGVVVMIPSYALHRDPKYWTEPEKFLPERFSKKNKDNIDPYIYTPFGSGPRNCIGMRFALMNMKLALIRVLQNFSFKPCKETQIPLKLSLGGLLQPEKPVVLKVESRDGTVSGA

For Cc1ccc(N2CCN(CC(O)CN3C(=O)NC(C)(c4ccc(F)cc4)C3=O)CC2)cc1C (centres undefined), the Activity [1] was “inactive”, the Ratio Ki [2] was 13 and the inhibition [3] was 19%. It also gave a Ki [4] of 177 nM, a Ratio Ki [5] of 6 and a Ki [6] of 1000 nM. For the same compound, the Ki [7] was 2260 nM.

For CC1(c2ccc(F)cc2)NC(=O)N(CC(O)CN2CCN(c3ccc(Cl)cc3)CC2)C1=O (centres undefined), the Activity [1] was “inactive”, the Ratio Ki [2] was 5 and the inhibition [3] was 16%. It also gave a Ki [4] of 908 nM, a Ratio Ki [5] of 6 and a Ki [6] of 5300 nM. The Ki [7] was 4260 nM.

COc1ccccc1N1CCN(CC(O)CN2C(=O)NC(C)(c3ccc(F)cc3)C2=O)CC1 (centres undefined) showed an activity at 25 µM [8] of 50%.

CC1(c2ccc(F)cc2)NC(=O)N(CC(O)CN2CCN(c3ccccc3F)CC2)C1=O (centres undefined) was tested, and the Activity [1] was “inactive”, the Ratio Ki [2] was 7 and the inhibition [3] was 6%. The Ki [4] was 234 nM, the Ratio Ki [5] was 7 and the Ki [6] was 1650 nM. The Ki [7] was 1710 nM.

Cc1ccc(C)c(N2CCN(CC(O)CN3C(=O)NC(C)(c4ccc(F)cc4)C3=O)CC2)c1 (centres undefined) was tested, and the Activity [1] was “inactive”, the Ratio Ki [2] was 32 and the Ki [4] was 56 nM. The Ratio Ki [5] was 23, the Ki [6] was 1300 nM and the Ki [7] was 1810 nM. The IC50 [9] was 1010 nM.

With CC1(c2ccc(F)cc2)NC(=O)N(CC(O)CN2CCN(c3ccc(F)cc3)CC2)C1=O (centres undefined) the Activity [1] was “inactive”, the Ratio Ki [2] was 7 and the inhibition [3] was 12%. For the same compound, the Ki [4] was 837 nM, the Ratio Ki [5] was 8 and the Ki [6] was 6860 nM. It also gave a Ki [7] of 5640 nM.

For CCOc1ccccc1N1CCN(CC(O)CN2C(=O)NC(C)(c3ccc(F)cc3)C2=O)CC1 (centres undefined), the Activity [1] was “inactive”, the Ratio Ki [2] was 13 and the Ki [4] was 10 nM. For the same compound, the Ratio Ki [5] was 10, the Ki [6] was 98 nM and the Ki [7] was 127 nM. The IC50 [9] was 81 nM.

With CC1(c2ccc(F)cc2)NC(=O)N(CC(O)CN2CCN(c3ccccc3O)CC2)C1=O (centres undefined) the Drug metabolism [10] was “metabolite_detected” and the Retention_time [11] was 3.77 min.

For CC1(c2ccc(F)cc2)NC(=O)N(CC(O)CN2CCN(C(c3ccccc3)c3ccccc3)CC2)C1=O (centres undefined), the Activity [1] was “inactive”, the Ratio Ki [2] was 3 and the Ratio Ki [5] was 71. The IC50 [9] was 1810 nM.

In the case of CC1(c2ccc(F)cc2)NC(=O)N(CC(O)CN2CCN(c3ccccc3Cl)CC2)C1=O (centres undefined), the Activity [1] is reported as “inactive”, the Ratio Ki [2] is reported as 18 and the inhibition [3] is reported as 30%. For the same compound, the Ki [4] was 47 nM, the Ratio Ki [5] was 8 and the Ki [6] was 397 nM. It also gave a Ki [7] of 839 nM.

With CC1(c2ccc(F)cc2)NC(=O)N(CC(O)CN2CCN(c3cccc(Cl)c3Cl)CC2)C1=O (centres undefined) the Activity [1] was “inactive”, the Ratio Ki [2] was 18 and the Ki [4] was 17 nM. For the same compound, the Ratio Ki [5] was 3, the Ki [6] was 59 nM and the Ki [7] was 302 nM. It also gave an IC50 [9] of 1390 nM.

In the case of COc1cccc(N2CCN(CC(O)CN3C(=O)NC(C)(c4ccc(F)cc4)C3=O)CC2)c1 (centres undefined), the Activity [1] is reported as “inactive”, the Ratio Ki [2] is reported as 58 and the Ki [4] is reported as 89 nM. It also gave a Ratio Ki [5] of 33, a Ki [6] of 2970 nM and a Ki [7] of 5190 nM. It also gave an IC50 [9] of 5940 nM.

In the case of CC1(c2ccc(F)cc2)NC(=O)N(CC(O)CN2CCN(c3ccc(Cl)c(Cl)c3)CC2)C1=O (centres undefined), the Activity [1] is reported as “inactive”, the Ratio Ki [2] is reported as 14 and the Ki [4] is reported as 141 nM. The Ratio Ki [5] was 6, the Ki [6] was 821 nM and the Ki [7] was 1980 nM. It also gave an IC50 [9] of 24000 nM.

For CC1(c2ccc(F)cc2)NC(=O)N(CC(O)CN2CCN(c3ccc(F)cc3F)CC2)C1=O (centres undefined), the Activity [1] was “inactive”, the Ratio Ki [2] was 4 and the inhibition [3] was 9%. It also gave a Ki [4] of 1190 nM, a Ratio Ki [5] of 8 and a Ki [6] of 9170 nM. The Ki [7] was 6790 nM.

In the case of CC1(c2ccc(F)cc2)NC(=O)N(CC(O)CN2CCN(c3ccccc3C#N)CC2)C1=O (centres undefined), the Activity [1] is reported as “inactive”, the Ratio Ki [2] is reported as 67 and the Ki [4] is reported as 14 nM. It also gave a Ratio Ki [5] of 23, a Ki [6] of 319 nM and a Ki [7] of 931 nM. The IC50 [9] was 343 nM.

With NCCc1c[nH]c2ccc(C(N)=O)cc12 the Activity [1] was “Active”.

With CC1(c2ccc(F)cc2)NC(=O)N(CC(O)CN2CCN(c3ccccc3)CC2)C1=O (centres undefined) the Activity [1] was “inactive”, the Ratio Ki [2] was 13 and the inhibition [3] was 18%. The Ki [4] was 223 nM, the Ratio Ki [5] was 12 and the Ki [6] was 2730 nM. It also gave a Ki [7] of 2910 nM.
